Measured values: patent publication US20130072505A1, “6,9-Disubstituted Purine Derivatives and Their Use for Treating Skin” (priority 2006, published 2013)

Columns and labels:
[1] = tested on: human skin fibroblasts; experiment: short-term studies on cultured human skin fibroblasts (attachment, survival, growth, apoptosis); type: cell-based
Protocol: Several short-term, preliminary studies of the effect of 6-furfurylamino-9-(2-tetrahydropyranyl)purine on cultured human skin fibroblasts cells have been carried out. The initial study involved the addition of 6-furfurylamino-9-(2-tetrahydropyranyl)purine (40 to 400 μM) to human skin fibroblasts cells in a culture. The percentage of attachment of the cells to the surface of the culture flask was not affected after 6 hours of treatment. In the remaining experiments reported in this example, the 6-furfurylamino-9-(2-tetrahydropyranyl)purine was added directly to the culture medium at the same time as the cells were seeded.
A wider range of concentrations (from 0.01 to 500 μM) was tested for determining the effects of 6-furfurylamino-9-(2-tetrahydropyranyl)purine on the survival of cultured human skin fibroblasts after 3 days of treatment.
The effect of 6-furfurylamino-9-(2-tetrahydropyranyl)purine (0 to 400 μM) treatment on short term growth of young human fibroblasts was also evaluated. Cell growth was similar in untreated samples and in samples treated with 40, 80, and 200 μM 6-furfurylamino-9-(2-tetrahydropyranyl)purine. […] Similar experiments were carried out to determine the extent of apoptosis and beta-galactosidase staining in 6-furfurylamino-9-(2-tetrahydropyranyl)purine-treated and untreated cells.
Based on these studies, 6-furfurylamino-9-(2-tetrahydropyranyl)purine appears to be well tolerated by young and senescent human skin fibroblasts and to have positive effects in terms of reversion of actin pattern and morphology of senescent cells to relatively younger characteristics.

[2] = tested on: Salmonella typhimurium histidien auxotrophs TA98 and TA100; experiment: Ames Test; type: cell-based; settings: 2.5 to 5000 μg/plate; presence and absence of rat liver S9
Protocol: Tests were carried out using DMSO as solvent and dose levels of 6-furfurylamino-9-(2-tetrahydropyranyl)purine at 2.5, 5.0, 15, 50, 500, 1500, and 5000 μg/plate based upon standard protocol and procedures (Ames et al., Mutation Research, 31, 347-364 (1975); Maron et al., Mutation Research, 113, 173-215 (1983)).

[3] = tested on: Chinese hamster ovary (CHO) cells; experiment: In Vitro Chromosome Aberration Screening Assay; type: cell-based; settings: 0.272 to 272 μg/ml; absence and presence of S9
Protocol: 6-Furfurylamino-9-(2-tetrahydropyranyl)purine was tested in the chromosome aberration screening assay using Chinese hamster ovary (CHO) cells in both the absence and presence of an Acroclor-induced S9 activation system to evaluate its clastogenic potential. DMSO was used as the solvent and the dose rate ranged from 0.272 to 272 μg/ml.

[4] = tested on: chorioallantoic membrane of White Leghorn eggs; experiment: Chorioallantoic Membrane Vascular Assay (ocular irritation)
Protocol: The chorioallantoic membrane of White Leghorn eggs, incubated for 14 days, were dosed with 40 μl of the test compound (and three lower concentrations in distilled water) and then further incubated for about 30 minutes at which time the chorioallantoic membrane was examined for vascular hemorrhage, capillary injection, and/or the presence of ghost vessels.

[5] = tested on: human subjects; experiment: Human Repeated Insult Patch Test; type: in vivo; settings: test gel about 0.1 percent
Protocol: Test gel (about 0.2 ml) containing about 0.1 percent 6-furfurylamino-9-(2-tetrahydropyranyl)purine was placed onto a 2 cm square occlusion patch was placed on each subjects back and remained for 24 hours. This procedure was repeated every Monday, Wednesday, and Friday until nine (9) applications had been made on the same area (induction phase). The area was examined before each new application. About 10-14 days after the ninth patch had been removed, a challenge patch (challenge phase) on a new area of the back and then examined 24 and 72 hours thereafter for reactivity. Skin responses were based on a six-point scale (0=no evidence of effect; +=barely perceptible; 1=mild; 2=moderate; 3=marked; and 4=severe).
Fifty-two (52) subjects completed the induction and challenge phases (total of 10 applications per subject).

[6] = tested on: Female SKH-1 hairless mice; experiment: topical skin anti-aging treatment, hairless mouse model; type: in vivo; settings: 3 weeks
From the text: The safety and efficacy of the 6,9-disubstituted purine derivatives of this invention as topical skin anti-aging treatments were examined using the hairless mouse model (a well established model for studying the treatments of photoaging). Female SKH-1 hairless mice (5 weeks old, 20-25 grams, Charles River Laboratories, Wilmington, Mass.) were individually housed in filter-top cages, and acclimated for 5-7 days after delivery. […] Water and mouse chow are provided ad libitum. The experimental groups (6 mice per group) included the following treatments: (1) Untreated control; (2) Vehicle control (MillCreek Lotion); […] The various treatments were applied daily (Monday-Friday) for 3 weeks to the dorsal skin (about 2 cm×2 cm) of the hairless mice at a dosage rate of about 20 mg. At baseline (prior to the 1st treatment), and weekly, the dorsal skin was measured for transepidermal water loss (TEWL), skin moisture content, and skin elasticity. […] This instrument was equipped with dual probes which are placed on the skin surface and a quantitative measurement taken of the respective parameters and the measurements recorded on an integrated computer. […] The slides were weakly counter stained in Mayer's hematoxylin and scored under a light microscope for the number of BrdU-positive cells per mm of epidermis for each section. […]

c1coc(CNc2ncnc3c2ncn3C2CCCCO2)c1 (stereo not drawn) [6-furfurylamino-9-(2-tetrahydropyranyl)purine]
toxicity or other negative effects on survival of cultured human skin fibroblasts ([1]; 0.01 to 500 μM, 3 days of treatment): No toxicity or other negative effects were apparent
short term growth of young human fibroblasts vs untreated ([1]; 40, 80, and 200 μM): similar
percentage of attachment of the cells to the surface of the culture flask ([1]; 40 to 400 μM, after 6 hours of treatment): not affected
short term growth of young human fibroblasts ([1]; about 400 μM): slight decrease in growth of cells
cell growth and survival ([1]; between 1 and 200 μM, 3 days of treatment): slight stimulation of cell growth and survival
apoptosis and beta-galactosidase staining (premature senescence) ([1]; various doses (0 to 400 μM)): no suggestion of induction of apoptosis or premature senescence
induction of additional growth or cell division ([1]; young and senescent human skin fibroblasts): No significant induction of additional growth or cell division
mutagenic responses [2]: no positive mutagenic responses
induction of structural and numerical chromosome aberrations [3]: negative for the induction of structural and numerical chromosome aberrations
ocular irritation classification [4]: non-irritant
RC50 (calculated concentration producing a positive reaction in 50% of treated eggs) ([4]; about 30 minutes, <1% irritant, >3% non-irritant): 105%
skin responses, six-point scale (0=no evidence of effect; +=barely perceptible; 1=mild; 2=moderate; 3=marked; 4=severe) ([5]; challenge phase, at 24 hours, 52 subjects): only one subject had a barely perceptible rating (+)
induced allergic contact dermatitis or other irritation ([5]; induction and challenge phases): No evidence of induced allergic contact dermatitis or other irritation
erythema (irritation) score ([6]; topical daily (Monday-Friday), Grade 0=no response to Grade 6=necrosis): < 1 Grade
Skin Moisture Content (skin conductance) ([6]; topical daily): one of the highest increases in skin moisture
